Values after ≈ are worked out from the molar mass of the structure shown. Active and inactive are the calls of the source. No cut-off for these calls is given here.
How the values were obtained:
Escherichia coli = test: Antibacterial activity against penicillin-susceptible Escherichia coli ATCC25922 assessed as bacterial growth inhibition incubated for 18 to 24 hrs by microbroth dilution method; format: functional; settings: time 18-24 hrs
Staphylococcus aureus [1] = test: Antibacterial activity against methicillin-resistant Staphylococcus aureus ATCC43300 assessed as bacterial count reduction at 2 times MIC measured after 10 hrs by time-killing assay; format: functional, organism-based
Staphylococcus aureus [2] = test: Antibacterial activity against methicillin-resistant Staphylococcus aureus ATCC43300 assessed as filamentation on cell surface at 4 times MIC incubated for 2 hrs by SEM analysis; format: functional, organism-based
Staphylococcus aureus [3] = test: Antibacterial activity against methicillin-resistant Staphylococcus aureus ATCC43300 assessed as bacterial growth inhibition incubated for 18 to 24 hrs by microbroth dilution method; format: functional; settings: time 18-24 hrs
Bacillus subtilis [4] = test: Antibacterial activity against Bacillus subtilis BNCC336690 assessed as bacterial growth inhibition incubated for 18 to 24 hrs by microbroth dilution method; format: functional; settings: time 18-24 hrs
Streptococcus pneumoniae = test: Antibacterial activity against Streptococcus pneumoniae ATCC49619 assessed as bacterial growth inhibition incubated for 18 to 24 hrs by microbroth dilution method; format: functional; settings: time 18-24 hrs
Staphylococcus aureus [5] = test: Antibacterial activity against methicillin-resistant Staphylococcus aureus ATCC43300 assessed as log10 CFU reduction at MIC measured for 1 hr by time-killing assay; format: functional
Staphylococcus aureus [6] = test: Antibacterial activity against methicillin-resistant Staphylococcus aureus ATCC43300 assessed as log10 CFU reduction at 2 to 4 times MIC measured for 0.5 hrs by time-killing assay; format: functional
Staphylococcus aureus [7] = test: Antibacterial activity against drug-resistant Staphylococcus aureus ATCC43300 assessed as inhibition of resistance development at 0.5 times MIC after 25 passages incubated for 18 to 24 hrs by microbroth dilution method; format: functional, organism-based; settings: time 18-24 hrs
Staphylococcus aureus [8] = test: Antibacterial activity against methicillin-resistant Staphylococcus aureus ATCC43300 assessed as wrinkling cell surface at 4 times MIC incubated for 2 hrs by SEM analysis; format: functional, organism-based
Bacillus subtilis [9] = test: Antibacterial activity against Bacillus subtilis BNCC336690 assessed as increase in cell length at 0.5 times MIC incubated for 4 hrs by microscopic analysis; format: functional, organism-based
[10] = biological target: T1, Cell division protein FtsZ (Escherichia coli K-12) (UniProt P0A9A6); test: Inhibition of recombinant Escherichia coli FtsZ expressed in Escherichia coli BL21 assessed as induction of FtsZ polymerization incubated for 10 mins by light scattering assay; settings: dose 1-4 µg/ml
T1 sequence (whole entry): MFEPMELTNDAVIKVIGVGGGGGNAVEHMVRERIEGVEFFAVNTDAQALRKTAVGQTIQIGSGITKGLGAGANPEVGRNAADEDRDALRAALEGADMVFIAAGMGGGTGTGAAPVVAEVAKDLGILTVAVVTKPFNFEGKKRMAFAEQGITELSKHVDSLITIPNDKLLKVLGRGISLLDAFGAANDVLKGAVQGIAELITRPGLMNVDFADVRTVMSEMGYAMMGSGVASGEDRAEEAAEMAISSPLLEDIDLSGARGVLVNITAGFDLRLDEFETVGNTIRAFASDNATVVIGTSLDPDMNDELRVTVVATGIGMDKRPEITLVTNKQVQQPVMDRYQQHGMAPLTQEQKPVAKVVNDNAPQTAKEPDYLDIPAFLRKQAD

[11] = biological target: T1, Cell division protein FtsZ (Escherichia coli K-12); test: Inhibition of recombinant Escherichia coli FtsZ expressed in Escherichia coli BL21 assessed as bundling of FtsZ filaments at 4 ug/ml incubated for 10 mins by TEM analysis; settings: dose 4.0 µg/ml
[12] = biological target: T1, Cell division protein FtsZ (Escherichia coli K-12); test: Inhibition of recombinant Escherichia coli FtsZ expressed in Escherichia coli BL21 assessed as reduction in GTPase activity incubated for 30 mins by malachite green phosphate staining based assay; settings: dose 0.02-0.64 µg/ml
[13] = Hemolytic activity in human erythrocytes assessed as release of hemoglobin level at 12.5 ug/ml incubated for 1 hr by absorbance based assay relative to control; format: toxicity, cell-based, Erythrocyte; settings: at 12.5 µg/mL, read-out: Activity
[14] = Cytotoxicity against mouse RAW264.7 cells assessed as cell survival at 12.5 ug/ml incubated for 24 hrs by CCK8 assay relative to control; format: toxicity, cell-based; settings: at 12.5 µg/mL, read-out: Activity
[15] = Cytotoxicity against mouse RAW264.7 cells assessed as cell survival at 25 ug/ml incubated for 24 hrs by CCK8 assay relative to control; format: toxicity, cell-based; settings: at 25 µg/mL, read-out: Activity
[16] = Cytotoxicity against mouse RAW264.7 cells assessed as cell survival at 50 ug/ml incubated for 24 hrs by CCK8 assay relative to control; format: toxicity, cell-based; settings: at 50 µg/mL, read-out: Activity
RAW264.7 = test: Cytotoxicity against mouse RAW264.7 cells >12.5 ug/ml incubated for 24 hrs by CCK8 assay; format: toxicity, cell-based; settings: raw264.7, 24 h, dose > 12.5 µg/ml
Staphylococcus aureus [17] = test: Antibacterial activity against methicillin-resistant Staphylococcus aureus ATCC43300 assessed as log10 CFU reduction at 1 to 4 times MIC measured after 4 hrs by time-killing assay; format: functional
[18] = biological target: T1, Cell division protein FtsZ (Escherichia coli K-12); test: Inhibition of recombinant Escherichia coli FtsZ expressed in Escherichia coli BL21 assessed as induction of FtsZ polymerization at 4 ug/ml incubated for 10 mins by light scattering assay; settings: dose 4.0 µg/ml
Staphylococcus aureus [19] = test: Antibacterial activity against methicillin-resistant Staphylococcus aureus ATCC43300 assessed as log10 CFU reduction at 1 to 4 times MIC measured for 1 hr by time-killing assay; format: functional
Staphylococcus aureus [20] = test: Inhibition of biofilm formation in methicillin-resistant Staphylococcus aureus ATCC43300 incubated for 24 hrs by crystal violet staining based assay; format: functional, organism-based; settings: dose 0.012-12.5 µg/ml
Staphylococcus aureus [21] = test: Inhibition of biofilm formation in methicillin-resistant Staphylococcus aureus ATCC43300 at 0.012 ug/ml incubated for 24 hrs by crystal violet staining based assay relative to control; format: functional
Staphylococcus aureus [22] = test: Inhibition of biofilm formation in methicillin-resistant Staphylococcus aureus ATCC43300 at 0.024 ug/ml incubated for 24 hrs by crystal violet staining based assay relative to control; format: functional
Staphylococcus aureus [23] = test: Inhibition of biofilm formation in methicillin-resistant Staphylococcus aureus ATCC43300 at 0.049 ug/ml incubated for 24 hrs by crystal violet staining based assay relative to control; format: functional
[24] = biological target: T1, Cell division protein FtsZ (Escherichia coli K-12); test: Inhibition of recombinant Escherichia coli FtsZ expressed in Escherichia coli BL21 assessed as reduction in GTPase activity at 0.32 ug/ml incubated for 30 mins by malachite green phosphate staining based assay relative to control; settings: dose 0.32 µg/ml

SMILES	MIC (Escherichia coli) [µg/mL]	MIC (Staphylococcus aureus [3]) [µg/mL]	MIC (Bacillus subtilis [4]) [µg/mL]	MIC (Streptococcus pneumoniae) [µg/mL]	further results
CN[C@H](CC(C)C)C(=O)N[C@H]1C(=O)N[C@@H](CC(N)=O)C(=O)N[C@H]2C(=O)N[C@H]3C(=O)N[C@H](C(=O)N[C@H](C(=O)O)c4cc(O)cc(O)c4-c4cc3ccc4O)[C@H](O)c3ccc(c(Cl)c3)Oc3cc2cc(c3O[C@@H]2O[C@H](CO)[C@@H](O)[C@H](O)[C@H]2O[C@H]2C[C@](C)(N)[C@H](O)[C@H](C)O2)Oc2ccc(cc2Cl)[C@H]1O [VANCOMYCIN]	> 200	–	–	–	Activity (Staphylococcus aureus [1]): inactive
COc1ccccc1NC(=O)c1ccc2[nH]c3c4[n+](ccc3c2c1)-c1ccccc1C4=O.[Br-]	> 200	0.049	0.024	0.049	Activity (Staphylococcus aureus [2]): Active; Activity (Staphylococcus aureus [5]): 2 log10CFU/ml; Activity (Staphylococcus aureus [6]): 2 log10CFU/ml; inhibition (Staphylococcus aureus [7]): inactive; Activity (Staphylococcus aureus [8]): Active; Activity (Bacillus subtilis [9]): Active; inhibition [10]: Dose-Dependent Effect; inhibition [11]: Active; inhibition [12]: Dose-Dependent Effect; hemolysis at 1 h, 12.5 ug/ml [13]: 0%; viability at 24 h, 12.5 ug/ml [14]: 14.6%; viability at 24 h, 25 ug/ml [15]: 12.8%; viability at 24 h, 50 ug/ml [16]: 13.2%; Activity (RAW264.7): Toxic
Cc1cccc(NC(=O)c2ccc3[nH]c4c5[n+](ccc4c3c2)-c2ccccc2C5=O)c1.[Br-]	> 200	0.098	0.049	0.098	Activity (Staphylococcus aureus [2]): Active; Activity (Staphylococcus aureus [17]): 2 log10CFU/ml; inhibition (Staphylococcus aureus [7]): inactive; Activity (Staphylococcus aureus [8]): Active; inhibition [18]: Active; Activity (Bacillus subtilis [9]): Active; inhibition [10]: Dose-Dependent Effect; inhibition [11]: Active; inhibition [12]: Dose-Dependent Effect; hemolysis at 1 h, 12.5 ug/ml [13]: 0%; viability at 24 h, 12.5 ug/ml [14]: 104%; viability at 24 h, 25 ug/ml [15]: 106%; viability at 24 h, 50 ug/ml [16]: 101%
O=C(O)c1cn(C2CC2)c2cc(N3CCNCC3)c(F)cc2c1=O [CIPROFLOXACIN]	0.195 (≈ 0.589 µM)	0.78 (≈ 2.35 µM)	0.195 (≈ 0.589 µM)	0.195 (≈ 0.589 µM)	–
CCCCCCCCNC(=O)c1ccc2[nH]c3c4[n+](ccc3c2c1)-c1ccccc1C4=O.[Br-]	> 200	0.098	0.098	0.39	Activity (Staphylococcus aureus [2]): Active; Activity (Staphylococcus aureus [19]): 2 log10CFU/ml; inhibition (Staphylococcus aureus [7]): inactive; Activity (Staphylococcus aureus [8]): Active; inhibition [18]: Active; Activity (Bacillus subtilis [9]): Active; inhibition [10]: Dose-Dependent Effect; inhibition [11]: Active; inhibition [12]: Dose-Dependent Effect; hemolysis at 1 h, 12.5 ug/ml [13]: 0%; viability at 24 h, 12.5 ug/ml [14]: 103%; viability at 24 h, 25 ug/ml [15]: 84.1%; viability at 24 h, 50 ug/ml [16]: 73.3%; inhibition (Staphylococcus aureus [20]): Dose-Dependent Effect; inhibition at 0.012 µg/mL (Staphylococcus aureus [21]): ~11.9%; inhibition at 0.024 µg/mL (Staphylococcus aureus [22]): ~42.7%; inhibition at 0.049 µg/mL (Staphylococcus aureus [23]): 82.6%
CC(C)c1cccc(NC(=O)c2ccc3[nH]c4c5[n+](ccc4c3c2)-c2ccccc2C5=O)c1.[Br-]	> 200	0.098	0.098	0.049	Activity (Staphylococcus aureus [2]): Active; Activity (Staphylococcus aureus [17]): 2 log10CFU/ml; inhibition (Staphylococcus aureus [7]): inactive; Activity (Staphylococcus aureus [8]): Active; Activity (Bacillus subtilis [9]): Active; inhibition [10]: Dose-Dependent Effect; inhibition [11]: Active; inhibition [12]: Dose-Dependent Effect; inhibition [24]: 40%; hemolysis at 1 h, 12.5 ug/ml [13]: 0%; viability at 24 h, 12.5 ug/ml [14]: 98.8%; viability at 24 h, 25 ug/ml [15]: 100%; viability at 24 h, 50 ug/ml [16]: 98.2%
CC(C)c1ccccc1NC(=O)c1ccc2[nH]c3c4[n+](ccc3c2c1)-c1ccccc1C4=O.[Br-]	> 200	12.5	6.25	50	–
CCCCCCc1ccc(NC(=O)c2ccc3[nH]c4c5[n+](ccc4c3c2)-c2ccccc2C5=O)cc1.[Br-]	> 200	25	0.78	6.25	–
CCCCNC(=O)c1ccc2[nH]c3c4[n+](ccc3c2c1)-c1ccccc1C4=O.[Br-]	> 200	6.25	3.12	3.12	–
CCCCc1ccc(NC(=O)c2ccc3[nH]c4c5[n+](ccc4c3c2)-c2ccccc2C5=O)cc1.[Br-]	> 200	3.12	0.049	0.78	–
O=C(NC1CCCCC1)c1ccc2[nH]c3c4[n+](ccc3c2c1)-c1ccccc1C4=O.[Br-]	> 200	0.78	0.78	0.78	–
COc1cccc(NC(=O)c2ccc3[nH]c4c5[n+](ccc4c3c2)-c2ccccc2C5=O)c1.[Br-]	> 200	0.39	0.195	0.39	–
CCCCCCCCc1ccc(NC(=O)c2ccc3[nH]c4c5[n+](ccc4c3c2)-c2ccccc2C5=O)cc1.[Br-]	> 200	25	25	25	–
CC(C)c1ccc(NC(=O)c2ccc3[nH]c4c5[n+](ccc4c3c2)-c2ccccc2C5=O)cc1.[Br-]	> 200	0.195	0.049	0.049	–
Cc1ccc(NC(=O)c2ccc3[nH]c4c5[n+](ccc4c3c2)-c2ccccc2C5=O)cc1.[Br-]	> 200	0.78	0.195	0.39	–
COc1ccc(NC(=O)c2ccc3[nH]c4c5[n+](ccc4c3c2)-c2ccccc2C5=O)cc1.[Br-]	> 200	0.39	0.39	0.39	–
CCCCCCNC(=O)c1ccc2[nH]c3c4[n+](ccc3c2c1)-c1ccccc1C4=O.[Br-]	> 200	0.39	0.39	0.39	–
Cc1ccccc1NC(=O)c1ccc2[nH]c3c4[n+](ccc3c2c1)-c1ccccc1C4=O.[Br-]	> 200	25	12.5	50	–
O=C(Nc1ccccc1)c1ccc2[nH]c3c4[n+](ccc3c2c1)-c1ccccc1C4=O.[Br-]	> 200	12.5	6.25	6.25	–
